Tests used:
[1] = tested on: coronary artery; test: Activity to increase blood flow volume in coronary artery; type: in vivo, dog (mongrel adult dog)
Method: (§1) The compound of this invention was dissolved in an aqueous solution containing 1% tartaric acid and 1% dimethylacetamide, while papaverine hydrochloride dissolved in 0.9% physiological saline. These test compounds were intravenously given through a residual polyethylene tube within femoral vein.
(§2) A mongrel adult dog was anesthetized with pentobarbital sodium and then underwent thoracotomy under artificial respiration. After cardiac membrane was removed, the origin of branches in left coronary artery was removed from its peripheral tissues and blood flow volume of coronary artery was measured via the probe for determining blood flow which was attached to said origin. Simultaneously, blood pressure in femoral artery was measured. Preparation and administration of test compounds were carried out in the same manner as in the above item (6).

[2] = tested on: blood platelets; test: Activity to inhibit the blood platelet adhesion (glass bead method); type: cell-based, rat (male Wistar-ST strain); conditions: Rattus norvegicus, read-out: Inhibitory rate of blood platelet adhesion
Method: As experimental animals, there were used male Wistar-ST strain rats of an average body weight of 250 g.
Blood samples were obained from carotid arteries by means of a cannule and immediately admixed with sodium citrate at a volume ratio of 1/10. The mixture was centrifuged at 200×g over 15 minutes to collect the supernatant (platelet-rich plasma: PRP). The PRP was then centrifuged at 2000×g over 15 minutes and the supernatant was removed to give blood platelet pellet.
To the resultant blood platelet pellet was added a 15 mM tris.HCl buffer solution with EDTA (pH 7.4) to resuspend blood platelets therein and then one applied centrifugation at 2000×g over 15 minutes and the supernatant was removed. The resultant washed blood platelets were added to a 0.3 mM tris.HCl buffer solution with CaCl2 (pH 7.4) to resuspend blood platelets therein, whereby there was prepared a blood platelet suspension adjusted to five hundred thousand platelets/μl. To 2 ml of the blood platelet suspension were added 2 μl of a methanolic solution of each test compound and incubation was effected for 15 minutes. Then blood platelet adhesion was determined according to a glass bead method by using a timing blood suction apparatus for determining the blood platelet adhesion.
The number of blood platelets was counted by means of a blood platelet counter.
Inhibitory rate of blood platelet adhesion was calculated according to the following equation: [formula] A: Blood platelet number in the blood platelet suspension passed through a control column
B: Blood platelet number in the blood platelet suspension passed through a bead-packing column

[3] = tested on: cerebral cortex; test: Activity to increase topical cerebral blood flow, cerebral cortex (heat clearance method); type: in vivo, rabbit (male New Zealand White); conditions: change in blood flow expressed in terms of voltage
Method: as §1
(§3) Physiol. Scand., 67, 1 (1966); "Kokyu to Junkan" (in Japanese), 15, 435 (1967); the Journal of the Pharmacological Society of Japan, 71, 709 (1975)]. Simultaneously, blood pressure in femoral artery was also determined. Preparation and administration of test compounds were carried out in the same manner as in the above item (6).

[4] = tested on: candate nucleus; test: Activity to increase topical cerebral blood flow, candate nucleus (heat clearance method); type: in vivo, rabbit (male New Zealand White); conditions: change in blood flow expressed in terms of voltage
Method: as §1, §3

[5] = tested on: carotid artery; test: Action on blood flow volume in carotid artery; type: in vivo, rabbit (male New Zealand White)
Method: Male New Zealand White rabbits (body weight of 2.8 Kg to 3.5 Kg) were used and anesthetized with pentobarbital sodium. Blood flow volumes in the carotid artery and femoral artery were measured and recorded via a non-blood observing type of a probe for measuring blood flow volume. Also, blood pressure in femoral artery was simultaneously measured and recorded with measurement of blood flow.
as §1

[6] = tested on: femoral artery; test: Blood pressure in femoral artery, coronary blood flow test; type: in vivo, dog (mongrel adult dog)
Method: as §1, §2

[7] = tested on: Thoracic aorta; test: Calcium antagonistic activity (relaxation of thoracic aorta); type: cell-based, rat (male Wistar strain); conditions: Rattus norvegicus, 10 mM CaCl2
Method: Thoracic aorta was removed from male Wistar strain rats with a body weight of 350 g to 450 g and then spiral-shaped pieces of aorta were prepared therefrom. […] Thereafter, samples were further stabilized in Krebs-Henseleit solution containing no CaCl2 over 1 hour and then in a 80 mM KCl nutritive liquid wherein NaCl was exchanged with an equimolar KCl (depolarized liquid) over a further one hour. Then, samples were washed with the depolarized liquid and loaded with a static tension of 1.0 g. When CaCl2 was added to the nutritive liquid so as to reach a final concentration of 10 mM, tension was produced in samples and, after 15-20 minutes from the addition of CaCl2, the maximum tension was obtained. At this point, test compounds were applied and relaxing activity of test compounds was evaluated. Tension was determined in equal dimension.
Relaxation rate was calculated according to the following equation: [formula] A: Maximum tension generated B: Generated tension retained after administration of test compound
All test compounds were given in the form of a solution in dimethyl sulfoxide at a dose of 0.1 ml, whereupon a final concentration of dimethyl sulfoxide itself was adjusted to 0.5 V/V %.

[8] = tested on: femoral artery; test: Blood pressure in femoral artery, topical cerebral blood flow test; type: in vivo, rabbit (male New Zealand White)
Method: as §1, §3

## CC(C)(C)CNc1nnc(-c2ccccc2)c2ccccc12 [Compound 1, 1-neopentylamino-4-phenylphthalazine]
[1]; 0.1 mg/Kg
  Blood flow volume in coronery artery, After administration: 28.8 mL/min
  Blood flow volume in coronery artery, Before administration: 18.8 mL/min
  Blood flow volume in coronery artery, Increase rate: 53.2%
[1]; 0.3 mg/Kg
  Blood flow volume in coronery artery, After administration: 37.5 mL/min
  Blood flow volume in coronery artery, Before administration: 18.8 mL/min
  Blood flow volume in coronery artery, Increase rate: 99.5%
[2]; 3·10^-4 M
  inhibition at 300 µM: 50.2%
[2]; 3·10^-5 M
  inhibition at 30 µM: 40.8%
[2]; 3·10^-6 M
  inhibition at 3 µM: 12.5%
[2]; 3·10^-7 M
  inhibition at 0.3 µM: 8.2%
[3]; 0.3 mg/Kg i.v.
  Increase in topical blood flow volume, Cerebral cortex: 1.03 ± 0.12 Δ μV
[3]; 1 mg/Kg i.v.
  Increase in topical blood flow volume, Cerebral cortex: 2.05 ± 0.29 Δ μV
[4]; 0.3 mg/Kg i.v.
  Increase in topical blood flow volume, Candate nucleus: 0.63 ± 0.08 Δ μV
[4]; 1 mg/Kg i.v.
  Increase in topical blood flow volume, Candate nucleus: 0.85 ± 0.25 Δ μV
[5]; 0.01 mg/Kg i.v.
  Blood flow volume in carotid artery, A: Before administration: 15.5 mL/min
  Blood flow volume in carotid artery, B: After administration: 21.9 mL/min
  Blood flow volume in carotid artery, C: Increase degree: 6.3 mL/min
  Blood flow volume in carotid artery, D: Increase rate: 40.8%
[5]; 0.05 mg/Kg i.v.
  Blood flow volume in carotid artery, A: Before administration: 14.5 mL/min
  Blood flow volume in carotid artery, B: After administration: 22.7 mL/min
  Blood flow volume in carotid artery, C: Increase degree: 8.1 mL/min
  Blood flow volume in carotid artery, D: Increase rate: 53.7%
[5]; 0.1 mg/Kg i.v.
  Blood flow volume in carotid artery, A: Before administration: 15.4 mL/min
  Blood flow volume in carotid artery, B: After administration: 26.9 mL/min
  Blood flow volume in carotid artery, C: Increase degree: 11.5 mL/min
  Blood flow volume in carotid artery, D: Increase rate: 74.2%
[5]; 0.5 mg/Kg i.v.
  Blood flow volume in carotid artery, A: Before administration: 17.3 mL/min
  Blood flow volume in carotid artery, B: After administration: 35.1 mL/min
  Blood flow volume in carotid artery, C: Increase degree: 17.8 mL/min
  Blood flow volume in carotid artery, D: Increase rate: 109.7%
[6]; 0.1 mg/Kg
  Lowering of blood pressure in femoral artery: 17.6%
[6]; 0.3 mg/Kg
  Lowering of blood pressure in femoral artery: 29.4%
[7]; final concentration 3 μM
  inhibition at 3 µM: 8.5%
[7]; final concentration 10 μM
  inhibition at 10 µM: 30%
[8]; 0.3 mg/Kg i.v.
  Lowering of blood pressure in femoral artery: 18.2 ± 0.98%
[8]; 1 mg/Kg i.v.
  Lowering of blood pressure in femoral artery: 30.8 ± 3.2%

## CCC(CC)Nc1nnc(-c2ccccc2)c2ccccc12 [Compound 2, 1-(1-ethylpropylamino)-4-phenylphthalazine]
[5]; 0.01 mg/Kg i.v.
  Blood flow volume in carotid artery, A: Before administration: 15.6 mL/min
  Blood flow volume in carotid artery, B: After administration: 19.4 mL/min
  Blood flow volume in carotid artery, C: Increase degree: 3.9 mL/min
  Blood flow volume in carotid artery, D: Increase rate: 24.9%
[5]; 0.05 mg/Kg i.v.
  Blood flow volume in carotid artery, A: Before administration: 13.9 mL/min
  Blood flow volume in carotid artery, B: After administration: 17.7 mL/min
  Blood flow volume in carotid artery, C: Increase degree: 3.8 mL/min
  Blood flow volume in carotid artery, D: Increase rate: 24.8%
[5]; 0.1 mg/Kg i.v.
  Blood flow volume in carotid artery, A: Before administration: 14.5 mL/min
  Blood flow volume in carotid artery, B: After administration: 22.4 mL/min
  Blood flow volume in carotid artery, C: Increase degree: 7.9 mL/min
  Blood flow volume in carotid artery, D: Increase rate: 54.3%
[5]; 0.5 mg/Kg i.v.
  Blood flow volume in carotid artery, A: Before administration: 16.7 mL/min
  Blood flow volume in carotid artery, B: After administration: 32.1 mL/min
  Blood flow volume in carotid artery, C: Increase degree: 15.4 mL/min
  Blood flow volume in carotid artery, D: Increase rate: 96.0%

Source: patent US4668677A, “4-phenylphthalazine derivatives, their preparation and their use as pharmaceuticals” (Mitsubishi Chemical Industries Limited, priority 1984, dated 1987)
